The NIST ThermoML archive (doi:10.1021/je900355h)
Numbers after ± are expanded uncertainties.

Details: Crystal; visual observation

Normal melting temperature: 198.40 ± 1.2 °C
SMILES: F[P-](F)(F)(F)(F)F.F[P-](F)(F)(F)(F)F.c1cc[n+](CCCCC[n+]2ccccc2)cc1 [1,1'-(1,5-pentanediyl)bis-pyridinium hexafluorophosphate]
